# PubChem BioAssay (NCI)
#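 A five-concentration, 48-hour dose response in 96-well plates underlies each endpoint, interpolated linearly between surrounding concentrations. GI50 = concentration required for 50% inhibition of growth. TGI denotes the concentration required for complete inhibition of growth.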
# System: NCI-H226 lung
# Assay: NCI-60 cell line screen, 48 h
SMILES,TGI [µM],GI50 [µM]
c1ccc2c(c1)OCCOCCOc1ccccc1OCCO2,> 100,
Cc1ccc2[c](c1)[Sn]([c]1ccccc1)([c]1ccccc1)[c]1cc(C)ccc1N2C,> 100,49

# System: NCI-H23 lung
# Assay: NCI-60 cell line screen, 48 h
SMILES,TGI [µM],GI50 [µM]
NC(=S)N/N=C1\CCCC\C1=C/c1ccccc1,> 100,
Cc1ccc(C)c(N2C(=O)C(=O)C(c3nc4ccccc4o3)/C(=N/N)C2=O)c1 (configuration not stated),> 100,
CCCCCCCCCCCCCCCCCCC1=C(O)C(=O)C=C(OC)C1=O,> 100,
CC(=O)OCCOCNC(=S)N/N=C/c1ccc([N+](=O)[O-])s1,43.1,
Cc1ccc(C)c(N2C(=O)C(=O)C(c3nc4ccccc4o3)/C(=N\NC(=O)c3ccccc3O)C2=O)c1 (configuration not stated),28.7,
c1ccc2c(c1)OCCOCCOc1ccccc1OCCO2,> 100,
Cc1ccc2[c](c1)[Sn]([c]1ccccc1)([c]1ccccc1)[c]1cc(C)ccc1N2C,> 100,41

# System: NCI-H460 lung
# Assay: NCI-60 cell line screen, 48 h
SMILES,TGI [µM],GI50 [µM]
NC(=S)N/N=C1\CCCC\C1=C/c1ccccc1,> 100,
Cc1ccc(C)c(N2C(=O)C(=O)C(c3nc4ccccc4o3)/C(=N/N)C2=O)c1 (configuration not stated),> 100,
CCCCCCCCCCCCCCCCCCC1=C(O)C(=O)C=C(OC)C1=O,> 100,
CC(=O)OCCOCNC(=S)N/N=C/c1ccc([N+](=O)[O-])s1,> 100,
c1ccc2c(c1)OCCOCCOc1ccccc1OCCO2,> 100,
Cc1ccc2[c](c1)[Sn]([c]1ccccc1)([c]1ccccc1)[c]1cc(C)ccc1N2C,> 100,51.2

# System: NCI-H522 lung
# Assay: NCI-60 cell line screen, 48 h
SMILES,TGI [µM],GI50 [µM]
NC(=S)N/N=C1\CCCC\C1=C/c1ccccc1,37.9,
Cc1ccc(C)c(N2C(=O)C(=O)C(c3nc4ccccc4o3)/C(=N/N)C2=O)c1 (configuration not stated),> 100,
CCCCCCCCCCCCCCCCCCC1=C(O)C(=O)C=C(OC)C1=O,82.2,
CC(=O)OCCOCNC(=S)N/N=C/c1ccc([N+](=O)[O-])s1,24.5,
Cc1ccc(C)c(N2C(=O)C(=O)C(c3nc4ccccc4o3)/C(=N\NC(=O)c3ccccc3O)C2=O)c1 (configuration not stated),54,
c1ccc2c(c1)OCCOCCOc1ccccc1OCCO2,> 100,
Cc1ccc2[c](c1)[Sn]([c]1ccccc1)([c]1ccccc1)[c]1cc(C)ccc1N2C,> 100,21.8

# System: OVCAR-3 ovarian
# Assay: NCI-60 cell line screen, 48 h
SMILES,TGI [µM],GI50 [µM]
NC(=S)N/N=C1\CCCC\C1=C/c1ccccc1,> 100,
Cc1ccc(C)c(N2C(=O)C(=O)C(c3nc4ccccc4o3)/C(=N/N)C2=O)c1 (configuration not stated),> 100,
CCCCCCCCCCCCCCCCCCC1=C(O)C(=O)C=C(OC)C1=O,> 100,
CC(=O)OCCOCNC(=S)N/N=C/c1ccc([N+](=O)[O-])s1,> 100,
Cc1ccc(C)c(N2C(=O)C(=O)C(c3nc4ccccc4o3)/C(=N\NC(=O)c3ccccc3O)C2=O)c1 (configuration not stated),63,
c1ccc2c(c1)OCCOCCOc1ccccc1OCCO2,70,
Cc1ccc2[c](c1)[Sn]([c]1ccccc1)([c]1ccccc1)[c]1cc(C)ccc1N2C,> 100,37.9

# System: OVCAR-4 ovarian
# Assay: NCI-60 cell line screen, 48 h
SMILES,TGI [µM],GI50 [µM]
NC(=S)N/N=C1\CCCC\C1=C/c1ccccc1,> 100,
Cc1ccc(C)c(N2C(=O)C(=O)C(c3nc4ccccc4o3)/C(=N/N)C2=O)c1 (configuration not stated),> 100,
CCCCCCCCCCCCCCCCCCC1=C(O)C(=O)C=C(OC)C1=O,> 100,
CC(=O)OCCOCNC(=S)N/N=C/c1ccc([N+](=O)[O-])s1,> 100,
Cc1ccc(C)c(N2C(=O)C(=O)C(c3nc4ccccc4o3)/C(=N\NC(=O)c3ccccc3O)C2=O)c1 (configuration not stated),69.6,
c1ccc2c(c1)OCCOCCOc1ccccc1OCCO2,> 100,
Cc1ccc2[c](c1)[Sn]([c]1ccccc1)([c]1ccccc1)[c]1cc(C)ccc1N2C,> 100,41.6

# System: OVCAR-5 ovarian
# Assay: NCI-60 cell line screen, 48 h
SMILES,TGI [µM],GI50 [µM]
NC(=S)N/N=C1\CCCC\C1=C/c1ccccc1,70.4,
CCCCCCCCCCCCCCCCCCC1=C(O)C(=O)C=C(OC)C1=O,> 100,
CC(=O)OCCOCNC(=S)N/N=C/c1ccc([N+](=O)[O-])s1,> 100,
Cc1ccc(C)c(N2C(=O)C(=O)C(c3nc4ccccc4o3)/C(=N\NC(=O)c3ccccc3O)C2=O)c1 (configuration not stated),> 100,
c1ccc2c(c1)OCCOCCOc1ccccc1OCCO2,> 100,
Cc1ccc2[c](c1)[Sn]([c]1ccccc1)([c]1ccccc1)[c]1cc(C)ccc1N2C,> 100,70.3

# System: OVCAR-8 ovarian
# Assay: NCI-60 cell line screen, 48 h
SMILES,TGI [µM],GI50 [µM]
NC(=S)N/N=C1\CCCC\C1=C/c1ccccc1,> 100,
Cc1ccc(C)c(N2C(=O)C(=O)C(c3nc4ccccc4o3)/C(=N/N)C2=O)c1 (configuration not stated),> 100,
CCCCCCCCCCCCCCCCCCC1=C(O)C(=O)C=C(OC)C1=O,> 100,
CC(=O)OCCOCNC(=S)N/N=C/c1ccc([N+](=O)[O-])s1,> 100,
Cc1ccc(C)c(N2C(=O)C(=O)C(c3nc4ccccc4o3)/C(=N\NC(=O)c3ccccc3O)C2=O)c1 (configuration not stated),76.7,
c1ccc2c(c1)OCCOCCOc1ccccc1OCCO2,> 100,
Cc1ccc2[c](c1)[Sn]([c]1ccccc1)([c]1ccccc1)[c]1cc(C)ccc1N2C,> 100,57.3

# System: RPMI-8226 leukemia
# Assay: NCI-60 cell line screen, 48 h
row,SMILES,TGI [µM]
1,NC(=S)N/N=C1\CCCC\C1=C/c1ccccc1,38.2
2,CC(=O)OCCOCNC(=S)N/N=C/c1ccc([N+](=O)[O-])s1,> 100
3,Cc1ccc(C)c(N2C(=O)C(=O)C(c3nc4ccccc4o3)/C(=N\NC(=O)c3ccccc3O)C2=O)c1 (configuration not stated),77.8
4,c1ccc2c(c1)OCCOCCOc1ccccc1OCCO2,70.2

# System: RXF 393 renal
# Assay: NCI-60 cell line screen, 48 h
SMILES,TGI [µM],GI50 [µM]
NC(=S)N/N=C1\CCCC\C1=C/c1ccccc1,> 100,
Cc1ccc(C)c(N2C(=O)C(=O)C(c3nc4ccccc4o3)/C(=N/N)C2=O)c1 (configuration not stated),> 100,
CCCCCCCCCCCCCCCCCCC1=C(O)C(=O)C=C(OC)C1=O,> 100,
CC(=O)OCCOCNC(=S)N/N=C/c1ccc([N+](=O)[O-])s1,> 100,
c1ccc2c(c1)OCCOCCOc1ccccc1OCCO2,> 100,
Cc1ccc2[c](c1)[Sn]([c]1ccccc1)([c]1ccccc1)[c]1cc(C)ccc1N2C,31.8,11.3

# System: RXF-631 renal
# Assay: NCI-60 cell line screen, 48 h
row,SMILES,TGI [µM]
1,NC(=S)N/N=C1\CCCC\C1=C/c1ccccc1,> 100

# System: SF-268 CNS
# Assay: NCI-60 cell line screen, 48 h
SMILES,TGI [µM],GI50 [µM]
NC(=S)N/N=C1\CCCC\C1=C/c1ccccc1,> 100,
Cc1ccc(C)c(N2C(=O)C(=O)C(c3nc4ccccc4o3)/C(=N/N)C2=O)c1 (configuration not stated),> 100,
CCCCCCCCCCCCCCCCCCC1=C(O)C(=O)C=C(OC)C1=O,> 100,
CC(=O)OCCOCNC(=S)N/N=C/c1ccc([N+](=O)[O-])s1,> 100,
Cc1ccc(C)c(N2C(=O)C(=O)C(c3nc4ccccc4o3)/C(=N\NC(=O)c3ccccc3O)C2=O)c1 (configuration not stated),> 100,
c1ccc2c(c1)OCCOCCOc1ccccc1OCCO2,> 100,
Cc1ccc2[c](c1)[Sn]([c]1ccccc1)([c]1ccccc1)[c]1cc(C)ccc1N2C,> 100,48.4

# System: SF-295 CNS
# Assay: NCI-60 cell line screen, 48 h
SMILES,TGI [µM],GI50 [µM]
NC(=S)N/N=C1\CCCC\C1=C/c1ccccc1,> 100,
Cc1ccc(C)c(N2C(=O)C(=O)C(c3nc4ccccc4o3)/C(=N/N)C2=O)c1 (configuration not stated),> 100,
CCCCCCCCCCCCCCCCCCC1=C(O)C(=O)C=C(OC)C1=O,> 100,
CC(=O)OCCOCNC(=S)N/N=C/c1ccc([N+](=O)[O-])s1,> 100,
Cc1ccc(C)c(N2C(=O)C(=O)C(c3nc4ccccc4o3)/C(=N\NC(=O)c3ccccc3O)C2=O)c1 (configuration not stated),> 100,
c1ccc2c(c1)OCCOCCOc1ccccc1OCCO2,> 100,
Cc1ccc2[c](c1)[Sn]([c]1ccccc1)([c]1ccccc1)[c]1cc(C)ccc1N2C,> 100,> 100

# System: SF-539 CNS
# Assay: NCI-60 cell line screen, 48 h
SMILES,TGI [µM],GI50 [µM]
NC(=S)N/N=C1\CCCC\C1=C/c1ccccc1,> 100,
Cc1ccc(C)c(N2C(=O)C(=O)C(c3nc4ccccc4o3)/C(=N/N)C2=O)c1 (configuration not stated),> 100,
CCCCCCCCCCCCCCCCCCC1=C(O)C(=O)C=C(OC)C1=O,> 100,
CC(=O)OCCOCNC(=S)N/N=C/c1ccc([N+](=O)[O-])s1,> 100,
Cc1ccc(C)c(N2C(=O)C(=O)C(c3nc4ccccc4o3)/C(=N\NC(=O)c3ccccc3O)C2=O)c1 (configuration not stated),65.2,
c1ccc2c(c1)OCCOCCOc1ccccc1OCCO2,> 100,
Cc1ccc2[c](c1)[Sn]([c]1ccccc1)([c]1ccccc1)[c]1cc(C)ccc1N2C,> 100,> 100

# System: SK-MEL-2 melanoma
# Assay: NCI-60 cell line screen, 48 h
SMILES,TGI [µM],GI50 [µM]
NC(=S)N/N=C1\CCCC\C1=C/c1ccccc1,> 100,
Cc1ccc(C)c(N2C(=O)C(=O)C(c3nc4ccccc4o3)/C(=N/N)C2=O)c1 (configuration not stated),> 100,
CCCCCCCCCCCCCCCCCCC1=C(O)C(=O)C=C(OC)C1=O,76.5,
CC(=O)OCCOCNC(=S)N/N=C/c1ccc([N+](=O)[O-])s1,> 100,
Cc1ccc(C)c(N2C(=O)C(=O)C(c3nc4ccccc4o3)/C(=N\NC(=O)c3ccccc3O)C2=O)c1 (configuration not stated),> 100,
c1ccc2c(c1)OCCOCCOc1ccccc1OCCO2,> 100,
Cc1ccc2[c](c1)[Sn]([c]1ccccc1)([c]1ccccc1)[c]1cc(C)ccc1N2C,51.9,11.2

# System: SK-MEL-28 melanoma
# Assay: NCI-60 cell line screen, 48 h
row,SMILES,TGI [µM]
1,NC(=S)N/N=C1\CCCC\C1=C/c1ccccc1,> 100
2,Cc1ccc(C)c(N2C(=O)C(=O)C(c3nc4ccccc4o3)/C(=N/N)C2=O)c1 (configuration not stated),> 100
3,CCCCCCCCCCCCCCCCCCC1=C(O)C(=O)C=C(OC)C1=O,> 100
4,CC(=O)OCCOCNC(=S)N/N=C/c1ccc([N+](=O)[O-])s1,> 100
5,Cc1ccc(C)c(N2C(=O)C(=O)C(c3nc4ccccc4o3)/C(=N\NC(=O)c3ccccc3O)C2=O)c1 (configuration not stated),> 100
6,c1ccc2c(c1)OCCOCCOc1ccccc1OCCO2,> 100
